A value given as a limit tells only on which side of the number the result lay.

As a reminder, the IC50 is the concentration that gives 50% inhibition.

Sequence of hNAAA (Q02083 29-125): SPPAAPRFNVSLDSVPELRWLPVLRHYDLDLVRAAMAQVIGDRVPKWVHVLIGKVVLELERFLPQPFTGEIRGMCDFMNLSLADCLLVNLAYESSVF
Sequence of hNAAA (Q02083 126-359): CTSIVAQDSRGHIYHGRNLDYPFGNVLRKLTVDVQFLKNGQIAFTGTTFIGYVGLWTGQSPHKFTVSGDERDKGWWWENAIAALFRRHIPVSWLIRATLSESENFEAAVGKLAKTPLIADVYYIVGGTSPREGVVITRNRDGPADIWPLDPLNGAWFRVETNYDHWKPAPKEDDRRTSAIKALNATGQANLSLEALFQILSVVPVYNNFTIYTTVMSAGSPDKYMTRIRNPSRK

One experiment has as its target hNAAA (Homo sapiens (Human), UniProt Q02083). Kind of experiment: Fluorescence-based NAAA inhibition assay with fluorogenic substrate PAMCA.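 Note: compound preincubated 15 min at room temperature with hNAAA, then PAMCA added at 5 µM, reacted 120 min at 37 °C, AMC release read by fluorescence (ex 360, em 460 nm).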
Conditions: not given
The compound `COc1ccc(-c2ccc(O[C@H]3C[C@@H](N=C=S)C3)cc2)cc1F` [Example 52, 3-Fluoro-4′-((1S,3S)-3-isothiocyanatocyclobutoxy)-4-methoxy-1,1′-biphenyl] returned an IC50 of 0.01 to 0.1 µM.
The same measure, in the same setting: the same measure for `CN(Cc1ccc(-c2ccccc2)cc1)[C@H]1C[C@@H](N=C=S)C1` [Example 54, (1S,3S)—N-([1,1′-biphenyl]-4-ylmethyl)-3-isothiocyanato-N-methylcyclobutan-1-amine]: greater than 1 µM; for `S=C=NC[C@H]1C[C@@H](OCc2ccc(-c3ccccc3)cc2)C1` [Example 57, 4-(((1S,3S)-3-(isothiocyanatomethyl)cyclobutoxy)methyl)-1,1′-biphenyl]: 0.11 to 1 µM; for `COc1ccc(-c2ccc(COC3CN(C#N)C3)cc2)cc1` [Example 63, 3-((4′-Methoxy-[1,1′-biphenyl]-4-yl)methoxy)azetidine-1-carbonitrile]: 0.01 to 0.1 µM.
Same read-out and setting: the same measure for `N#CN1CC(OCc2ccc(-c3ccccc3)cc2)C1` [Example 64, 3-([1,1′-Biphenyl]-4-ylmethoxy)azetidine-1-carbonitrile]: 0.01 to 0.1 µM; for `COc1ccc(-c2ccc(COC3CN(C#N)C3)cc2)c(OC)c1` [Example 65, 3-((2′,4′-Dimethoxy-[1,1′-biphenyl]-4-yl)methoxy)azetidine-1-carbonitrile]: 0.01 to 0.1 µM; for `N#CN1CC(OCc2cccc(-c3ccccc3)c2)C1` [Example 66, 3-([1,1′-Biphenyl]-3-ylmethoxy)azetidine-1-carbonitrile]: 0.01 to 0.1 µM.
In turn, `COc1cccc(-c2ccc(COC3CN(C#N)C3)cc2)c1` [Example 67, 3-((3′-Methoxy-[1,1′-biphenyl]-4-yl)methoxy)azetidine-1-carbonitrile] came in with a half-inhibitory concentration (IC50) of 0.01 to 0.1 µM.
On the same count and under the same terms, the same measure for `COc1ccc(OC)c(-c2ccc(COC3CN(C#N)C3)cc2)c1` [Example 68, 3-((2′,5′-Dimethoxy-[1,1′-biphenyl]-4-yl)methoxy)azetidine-1-carbonitrile]: 0.01 to 0.1 µM; for `COc1cccc(-c2ccc(COC3CN(C#N)C3)cc2)c1OC` [Example 69, 3-((2′,3′-Dimethoxy-[1,1′-biphenyl]-4-yl)methoxy)azetidine-1-carbonitrile]: 0.01 to 0.1 µM.
On the same count and under the same terms, the same measure for `N#CN1CC(OCc2ccc(-c3cccc(C(F)(F)F)c3)cc2)C1` [Example 70, 3-((3′-(Trifluoromethyl)-[1,1′-biphenyl]-4-yl)methoxy)azetidine-1-carbonitrile]: 0.01 to 0.1 µM.
Still for that read-out and setting: the same measure for `N#CN1CC(OCc2ccc(-c3cc(C(F)(F)F)cc(C(F)(F)F)c3)cc2)C1` [Example 71, 3-((3′,5′-Bis(trifluoromethyl)-[1,1′-biphenyl]-4-yl)methoxy)azetidine-1-carbonitrile]: 0.01 to 0.1 µM; for `N#CN1CC(OCc2ccc(-c3cccnc3)cc2)C1` [Example 72, 3-((4-(Pyridin-3-yl)benzyl)oxy)azetidine-1-carbonitrile]: 0.01 to 0.1 µM; for `COc1ccc(-c2ccc(COC3CN(C#N)C3)cc2)cn1` [Example 73, 3-((4-(6-Methoxypyridin-3-yl)benzyl)oxy)azetidine-1-carbonitrile]: 0.01 to 0.1 µM.
In turn, `COc1ncccc1-c1ccc(COC2CN(C#N)C2)cc1` [Example 74, 3-((4-(2-Methoxypyridin-3-yl)benzyl)oxy)azetidine-1-carbonitrile] showed an IC50 of 0.01 to 0.1 µM.
On the same count and under the same terms, the same measure for `COc1ccccc1-c1ccc(COC2CN(C#N)C2)cc1` [Example 75, 3-((2′-Methoxy-[1,1′-biphenyl]-4-yl)methoxy)azetidine-1-carbonitrile]: 0.01 to 0.1 µM; for `Cc1ccc(-c2ccc(COC3CN(C#N)C3)cc2)cc1` [Example 76, 3-((4′-Methyl-[1,1′-biphenyl]-4-yl)methoxy)azetidine-1-carbonitrile]: 0.01 to 0.1 µM; for `N#CN1CC(OCc2ccc(-c3ccc(F)cc3)cc2)C1` [Example 77, 3-((4′-Fluoro-[1,1′-biphenyl]-4-yl)methoxy)azetidine-1-carbonitrile]: 0.01 to 0.1 µM.
On the same count and under the same terms, the same measure for `COc1cccc(-c2ccc(COC3CN(C#N)C3)c(F)c2)c1` [Example 78, 3-((3-Fluoro-3′-methoxy-[1,1′-biphenyl]-4-yl)methoxy)azetidine-1-carbonitrile]: 0.01 to 0.1 µM.
The same measure, in the same setting: the same measure for `COc1cccc(-c2ccc(COC3CN(C#N)C3)c(C(F)(F)F)c2)c1` [Example 79, 3-((3′-Methoxy-3-(trifluoromethyl)-[1,1′-biphenyl]-4-yl)methoxy)azetidine-1-carbonitrile]: 0.01 to 0.1 µM.
Compound `COc1cccc(-c2ccc(COC3CN(C#N)C3)c(OC)c2)c1` [Example 80, 3-((3,3′-Dimethoxy-[1,1′-biphenyl]-4-yl)methoxy)azetidine-1-carbonitrile] showed an IC50 of 0.01 to 0.1 µM.
Same read-out and setting: the same measure for `N#CN1CC(OCc2ccc(Oc3ccccc3)cc2)C1` [Example 81, 3-((4-Phenoxybenzyl)oxy)azetidine-1-carbonitrile]: 0.01 to 0.1 µM; for `COc1cccc(-c2ccc(C3(COC4CN(C#N)C4)CC3)cc2)c1` [Example 82, 3-((1-(3′-Methoxy-[1,1′-biphenyl]-4-yl)cyclopropyl)methoxy)azetidine-1-carbonitrile]: 0.01 to 0.1 µM.
Regarding `COc1cccc(OC)c1-c1ccc(COC2CN(C#N)C2)cc1` [Example 83, 3-((2′,6′-Dimethoxy-[1,1′-biphenyl]-4-yl)methoxy)azetidine-1-carbonitrile], the IC50 lay within 0.01 to 0.1 µM.
In turn, `N#CN1CC(OCc2ccc(-c3ccc4c(c3)OCCO4)cc2)C1` [Example 84, 3-((4-(2,3-Dihydrobenzo[b][1,4]dioxin-6-yl)benzyl)oxy)azetidine-1-carbonitrile] yielded a concentration for half-maximal inhibition (IC50) of 0.01 to 0.1 µM.
For `N#CN1CC(OCc2ccc(-c3cccc(OCc4ccccc4)c3)cc2)C1` [Example 85, 3-((3′-(Benzyloxy)-[1,1′-biphenyl]-4-yl)methoxy)azetidine-1-carbonitrile], the half-maximal inhibitory concentration (IC50) is 0.01 to 0.1 µM.
The same measure, in the same setting: the same measure for `N#CN1CC(COCc2ccc(-c3ccccc3)cc2)C1` [Example 86, 3-(([1,1′-Biphenyl]-4-ylmethoxy)methyl)azetidine-1-carbonitrile]: 0.01 to 0.1 µM; for `N#CN1CC(OCc2ccc(Oc3ccccc3)cc2-c2ccccc2)C1` [Example 87, 3-((5-Phenoxy-[1,1′-biphenyl]-2-yl)methoxy)azetidine-1-carbonitrile]: 0.01 to 0.1 µM; for `COc1ccccc1-c1cc(Oc2ccccc2)ccc1COC1CN(C#N)C1` [Example 88, 3-((2′-Methoxy-5-phenoxy-[1,1′-biphenyl]-2-yl)methoxy)azetidine-1-carbonitrile]: 0.01 to 0.1 µM.
Same read-out and setting: the same measure for `COc1cccc(-c2cc(Oc3ccccc3)ccc2COC2CN(C#N)C2)c1` [Example 89, 3-((3′-Methoxy-5-phenoxy-[1,1′-biphenyl]-2-yl)methoxy)azetidine-1-carbonitrile]: 0.01 to 0.1 µM; for `COc1ccc(-c2cc(Oc3ccccc3)ccc2COC2CN(C#N)C2)cc1` [Example 90, 3-((4′-Methoxy-5-phenoxy-[1,1′-biphenyl]-2-yl)methoxy)azetidine-1-carbonitrile]: 0.01 to 0.1 µM.
On to `COc1ncccc1-c1cc(Oc2ccccc2)ccc1COC1CN(C#N)C1` [Example 91, 3-((2-(2-Methoxypyridin-3-yl)-4-phenoxybenzyl)oxy)azetidine-1-carbonitrile], for which the IC50 fell in the range of 0.01 to 0.1 µM.
The same measure, in the same setting: the same measure for `N#Cc1ccc(-c2cc(Oc3ccccc3)ccc2COC2CN(C#N)C2)cc1` [Example 92, 3-((4′-Cyano-5-phenoxy-[1,1′-biphenyl]-2-yl)methoxy)azetidine-1-carbonitrile]: 0.01 to 0.1 µM; for `N#Cc1ccccc1-c1cc(Oc2ccccc2)ccc1COC1CN(C#N)C1` [Example 93, 3-((2′-Cyano-5-phenoxy-[1,1′-biphenyl]-2-yl)methoxy)azetidine-1-carbonitrile]: 0.01 to 0.1 µM.
`N#CN1CC(OCc2ccc(OC(c3ccc(F)cc3)c3ccc(F)cc3)cc2Br)C1` [Example 94, 3-((4-(Bis(4-fluorophenyl)methoxy)-2-bromobenzyl)oxy)azetidine-1-carbonitrile] yielded an IC50 of 0.01 to 0.1 µM.

The experiment is the same for the next values; noted with them: read-out: NAAA Inhibition IC50 μM; purified hNAAA, PAMCA 5 μM, pH 4.5.
Regarding `CN(Cc1ccc(-c2ccccc2)cc1)C1CC(N=C=S)C1` [Example 53, (1R,3R)—N-([1,1′-Biphenyl]-4-ylmethyl)-3-isothiocyanato-N-methylcyclobutan-1-amine], the IC50 was greater than 1 µM.
Same read-out and setting: the same measure for `CN(Cc1ccc(-c2ccc3c(c2)OCO3)cc1)C1CC(N=C=S)C1` [Example 55, (1R,3R)—N-(4-(benzo[d][1,3]dioxol-5-yl)benzyl)-3-isothiocyanato-N-methylcyclobutan-1-amine]: greater than 1 µM; for `CCN(Cc1ccc(-c2ccc3c(c2)OCO3)cc1)C1CC(N=C=S)C1` [Example 56, (1R,3R)—N-(4-(benzo[d][1,3]dioxol-5-yl)benzyl)-N-ethyl-3-isothiocyanatocyclobutan-1-amine]: 0.11 to 1 µM.
Still for that read-out and setting: the same measure for `FC(F)(F)c1cccc(-c2ccc(COC3CCCC(N=C=S)C3)cc2)c1` (stereo not shown) [Example 58, 4′-(((3-Isothiocyanatocyclohexyl)oxy)methyl)-3-(trifluoromethyl)-1,1′-biphenyl]: greater than 1 µM; for `COc1ccc(-c2ccc(COC3CCC(N=C=S)CC3)cc2)cc1F` (stereo not shown) [Example 59, 3-Fluoro-4′-((((1r,4r)-4-isothiocyanatocyclohexyl)oxy)methyl)-4-methoxy-1,1′-biphenyl]: 0.11 to 1 µM.
The same measure, in the same setting: the same measure for `S=C=N[C@@H]1CC[C@@H](OCc2ccc(Br)cc2)C1` [Example 60, 1-Bromo-4-((((1R,3R)-3-isothiocyanatocyclopentyl)oxy)methyl)benzene]: greater than 1 µM.
In the case of `FC(F)(F)c1cccc(-c2ccc(CO[C@H]3Cc4ccccc4[C@H]3N=C=S)cc2)c1` [Example 61, (1R,2S)-1-isothiocyanato-2-((3′-(trifluoromethyl)-[1,1′-biphenyl]-4-yl)methoxy)-2,3-dihydro-1H-indene], the IC50 was greater than 1 µM.
As for `COc1ccc(-c2ccc(CO[C@@H]3Cc4ccccc4[C@@H]3N=C=S)cc2)cc1F` [Example 62, (1S,2R)-2-((3′-fluoro-4′-methoxy-[1,1′-biphenyl]-4-yl)methoxy)-1-isothiocyanato-2,3-dihydro-1H-indene], the IC50 was greater than 1 µM.

These data come from US9963444B2, “N-acylethanolamine hydrolyzing acid amidase (NAAA) inhibitors and their use thereof” (Northeastern University, priority 2014, dated 2018).
